Data set [1] deals with HL-60 (ATCC CCL-240) cells. Put plainly: Analysis of DNA fragmentation. It is filed as cell-based, Human. The note with it: HL-60 cells, cultured for 24 or 48 hours (time not given). On the procedure: HL-60 (ATCC CCL-240) cells were cultured at 37° C. in RPMI 1640 medium (Bio Whittaker) containing 10% fetal calf serum (JRH) which had been treated at 56° C. for 30 minutes and suspended in RPMI 1640 medium at a concentration of 2.5×10^5 cells/4.5 ml. […] each of aqueous solutions of the compound (2) at a concentration of 10, 50 or 100 mM, the compound (7) at a concentration of 500, 1000 or 1500 μM, the compound (9) at a concentration of 750, 1500 or 3000 μM, the compound (11) at a concentration of 750, 1500 or 3000 μM, or the compound (14) at a concentration of 750, 1500 or 3000 μM was added to 4.5 ml of the suspension. The mixtures were incubated at 37° C. for 24 hours in the presence of 5% CO2. Measurement of apoptotic cells using FACScan as described in Saibo Kogaku, Bessatsu (Cell Technology, Suppl.) Jikken Protocol Series: Apoptosis Jikken Protocol (Experimental Protocol Series: Experimental Protocols for Apoptosis) (Shujun-sha) pp. 129-130 and analysis of DNA fragmentation as described in Bio Manual UP Series: […] Apoptosis Jikken-ho (Bio Manual UP Series: Current Experimental Methods for Apoptosis) (Yodo-sha) pp. 61-63 were carried out using cells cultured for 24 or 48 hours in the same manner as that described above.

The subject of data set [2] is HL-60 (ATCC CCL-240) cells. Kind of data set: Viability of HL-60 cells by Trypan Blue staining. It is filed as cell-based. The note with it: Homo sapiens, read-out: Viability50, concentration that results in a viability of 50%. On the procedure: HL-60 (ATCC CCL-240) cells were cultured at 37° C. in RPMI 1640 medium (Bio Whittaker) containing 10% fetal calf serum (JRH) which had been treated at 56° C. for 30 minutes and suspended in RPMI 1640 medium at a concentration of 2.5×10^5 cells/4.5 ml.
[…] each of aqueous solutions of the compound (2) at a concentration of 10, 50 or 100 mM, the compound (7) at a concentration of 500, 1000 or 1500 μM, the compound (9) at a concentration of 750, 1500 or 3000 μM, the compound (11) at a concentration of 750, 1500 or 3000 μM, or the compound (14) at a concentration of 750, 1500 or 3000 μM was added to 4.5 ml of the suspension. The mixtures were incubated at 37° C. for 24 hours in the presence of 5% CO2.
A portion of the cells cultured for 24 or 48 hours as described in Example 4 was stained with 0.4% Trypan Blue and examined under an optical microscope. The number of viable cells which were not stained and the number of dead cells which were stained blue were counted. The concentration of each of the compounds (2), (7), (9), (11) and (14) that results in a viability of 50% (Viability50 mM) was determined.

Data set [3] relates to HL-60 cells (ATCC CCL-240). Put plainly: Proliferation of HL-60 cells with or without hydroxyurea G1 arrest (WST-1). Format: cell-based, Human. Particulars: Homo sapiens, 48 hours. On the procedure:
HL-60 cells (ATCC CCL-240) were suspended in RPMI 1640 medium (Bio Whittaker, 12-702F) containing 10% fetal calf serum (Gibco) and 100 μM hydroxyurea at a concentration of 5×10^5 cells/ml. 20 ml of the suspension was added to a 10-cm Petri dish. The dish was incubated at 37° C. overnight in the presence of 5% CO2 to make the cells arrest at G1 phase. The cells were collected by centrifugation and resuspended in RPMI 1640 medium containing 10% fetal calf serum (Gibco) and 100 μM hydroxyurea at a concentration of 5×10^5 cells/ml. 5 ml of the suspension was added to each well of a 6-well microtiter plate. On the other hand, as cells without the treatment with hydroxyurea, HL-60 cells were suspended in RPMI 1640 medium containing 10% fetal calf serum (Gibco) at a concentration of 1×10^5 cells/ml. 5 ml of the suspension was added to each well of a 6-well microtiter plate. 50 μl of a solution containing DGE at a concentration of 30, 22.5, 15 or 7.5 mM in water, 25 μl of a solution containing the compound (7) at a concentration of 60, 45, 30 or 15 mM in dimethyl sulfoxide, or 25 μl of a solution containing the compound (17) at a concentration of 100, 75, 50 or 25 mM in dimethyl sulfoxide was added to the well containing the cells treated with hydroxyurea. 50 μl of a solution containing DGE at a concentration of 8, 6, 4 or 2 mM in water, 25 μl of a solution containing the compound (7) at a concentration of 30, 22.5, 15 or 7.5 mM in dimethyl sulfoxide, or 25 μl of a solution containing the compound (17) at a concentration of 80, 60, 40 or 20 mM in dimethyl sulfoxide was added to the well containing the cells without the treatment with hydroxyurea. The plate was incubated for additional 48 hours. Cells collected by centrifuging the culture were suspended in 5 ml of fresh RPMI 1640 medium containing 10% fetal calf serum (Gibco). 100 μl of the suspension was used for measuring viable cell number using Premix WST-1 Cell Proliferation Assay System (Takara Shuzo, MK400).
For each of the samples, the concentration at which 50% of the proliferation is inhibited (IC50) for the cells treated with hydroxyurea was higher than that for the cells without the treatment with hydroxyurea. Table 3 summarizes IC50 (μM) for each of the samples. […] Since most of cells in a living body are arrested at G1 phase, it is considered that DGE and R-AhGal compounds (precursors of DGE) are agents less toxic to a living body.

Data set [4] can be described thus: Conversion into DGE in culture medium (thin-layer chromatography). It is filed as in vitro ADME. Particulars: 10 mM in RPMI 1640 medium with 10% calf serum, 37° C., 4 hours. On the procedure:
The compound (7) or the compound (9) synthesized in Example 1 was dissolved at a final concentration of 10 mM in RPMI 1640 medium supplemented with 10% calf serum. These samples were allowed to stand at 37° C. for 4 hours. […] each of the samples was then subjected to thin-layer chromatography using chloroform:methanol=5:1 as a developing solvent. Detection was carried out using orcinol-sulfuric acid.
For each sample, a spot with Rf value of 0.5, the same value as that for the compound of general formula IV in which Z is CH2OH and Y is H (L-glycero-1,5-epoxy-1αβ,6-dihydroxy-cis-hex-3-en-2-one, hereinafter referred to as DGE), was detected.

Where [5] appears, read: HL-60 cells arrested at G1 phase with 100 μM hydroxyurea, read-out: IC50, Cells treated with hydroxyurea.
[6] abbreviates: HL-60 cells, read-out: IC50, Cells without treatment with hydroxyurea.

Where two headings read alike, the source gives them in different places.

For the compound `O=C[C@H](O)[C@H]1OC[C@@H](O)[C@@H]1OC(=O)c1ccccc1` [Compound (7), 4-O-benzoyl-3,6-anhydro-D-galactose], the “final concentration at which DNA fragmentation was observed” value in data set [1] was at least 100 µM. The IC50 in data set [2] (24 hours) is 123 µM; in data set [2] (48 hours), 101 µM; in data set [3] (setting [5]), 151 µM; in data set [3] (setting [6]), 79.1 µM.

Turning to `OCC1OC(OC2C(CO)OC(OC3C(CO)OC(OC4C(O)COC4C(O)C(O)O)C(O)C3O)C(O)C2O)C(O)C(O)C1O` [Compound (14), 4-O-β-maltotoriosyl-3,6-anhydro-D-galactose], the “conversion into DGE (spot with Rf value of 0.5, the same value as DGE)” value in data set [4] was “conversion into DGE was also observed”. The “final concentration at which DNA fragmentation was observed” value in data set [1] was at least 75 µM. For the same compound, the figures for the IC50 in data set [2] (24 hours) and in data set [2] (48 hours) were 551 µM and 150 µM, respectively.

For `O=C[C@H](O)[C@H]1OC[C@@H](O)[C@@H]1OCc1ccccc1` [Compound (17), 4-O-benzyl-3,6-anhydro-D-galactose], the “conversion into DGE (spot with Rf value of 0.5, the same value as DGE)” value in data set [4] is listed as “conversion into DGE was also observed”. The IC50 in data set [3] (setting [5]) was 264 µM; in data set [3] (setting [6]) it was 190 µM.

(Values after patent US6518302B1, “Remedies” (Takara Shuzo Co., Ltd., priority 1999, dated 2003).)
